Measured values from patent publication US10907208B2, “Method for screening agents promoting skin barrier function and method for evaluating skin barrier function taking epidermal serine racemase and/or D-serine level as indicator” (Shiseido Company, Ltd, priority 2014, dated 2021).

Legend:
Format in all cases: cell-based, human
repetin (RPTN) gene = assay: Real-time PCR gene expression in three-dimension culture of keratinocytes (3D skin model), repetin; conditions: D-Ser 100 μM, 7 days, corrected by MRPL19, FIG. 7
Protocol: (§1) Human normal keratinocytes were seeded on polycarbonate insert (Millipore) having 12 mm of diameter and 0.4 μm of bore diameter. Then, Human normal keratinocytes were cultured for three days under 5% CO2 atmosphere at 37° C. by adding Cnt-Prime, Epithelial Culture Medium (CELLnTEC Advanced Cell Systems AG) inside and outside of the insert, followed by being cultured for 24 hours by substituting with Cnt-prime 3D Barrier medium (CELLnTEC Advanced Cell Systems AG). […]
(§2) Total RNA extracted by means of Trizol reagent (Invitrogen) was subjected to NanoDrop 1000 Spectrophotometer (Thermo Fisher Scientific) to determine RNA concentration, and then was converted to cDNA by using SuperScriptVIL0 (Invitrogen). Relative expression amount of genes of fillagrin (FLG), cornuline (CRNN) and repetin (RPTN), and mitochondrial ribosome protein L19 (MRPL19) which was used as an internal control gene was determined. […]
(§3) Relative expression amount of the target gene of each group was determined by means of correction using the expression amount of mitochondrial ribosome protein L19 gene (MRPL19) as an internal control (FIGS. 5-7). […]

cornuline (CRNN) gene = assay: Real-time PCR gene expression in three-dimension culture of keratinocytes (3D skin model), cornuline; conditions: D-Ser 100 μM, 7 days, corrected by MRPL19, FIG. 6
Protocol: as §1, §2, §3

fillagrin (FLG) gene = assay: Real-time PCR gene expression in three-dimension culture of keratinocytes (3D skin model), fillagrin; conditions: D-Ser 100 μM, 7 days, corrected by MRPL19, FIG. 5
Protocol: as §1, §2, §3

SMILES: N[C@H](CO)C(=O)O [D-serine]
- expression level of repetin gene (repetin (RPTN) gene): increases
- expression level of repetin gene (repetin (RPTN) gene; listed as D-Ser): increased
- expression level of cornuline gene (cornuline (CRNN) gene): increases
- expression level of cornuline gene (cornuline (CRNN) gene; listed as D-Ser): increased
- expression level of fillagrin gene (fillagrin (FLG) gene): increases
- expression level of fillagrin gene (fillagrin (FLG) gene; listed as D-Ser): increased
